Test [1] has as its target Coagulation factor XIa (Homo sapiens (Human), UniProt P03951). Kind of test: Factor XIa Assay. The test is classed as biochemical. The settings on record: human factor XIa 0.04 nM, substrate GPR-AFC, 30 min pre-incubation at 25° C., pH 7.4; read-out: FXIa IC50. The method, then:
(§1) The effectiveness of a compound of the present invention as an inhibitor of Coagulation factor XIa can be determined using a relevant purified serine protease, and an appropriate synthetic substrate. The rate of hydrolysis of the chromogenic or fluorogenic substrate by the relevant serine protease was measured both in the absence and presence of compounds of the present invention. Assays were conducted at rt or at 37° C. […] A decrease in the rate of fluorescence change in the presence of inhibitor is indicative of enzyme inhibition. Such methods are known to one skilled in the art. The results of this assay are expressed as the half-maximal inhibitory concentrations (IC50), or the inhibitory constant, Ki.
Compounds were pre-incubated for 30 min at 25° C. with human (0.04 nM) factor XIa in 50 mM HEPES buffer with 150 mM sodium chloride, 5 mM calcium chloride, 0.1% PEG 8000, pH 7.4. factor XIa enzymatic activity was determined by addition of the substrate glycine-proline-arginine-7-amido-4-trifluoromethylcoumarin (GPR-AFC) and measurement of the fluorescence at 400/505 nm after a 60 min incubation at 25° C. The % inhibition for each data point was calculated from the data and analyzed using the log (inhibitor) vs. response four parameters equation to determine the half-maximal inhibitory concentrations (IC50). The IC50 were converted to equilibrium inhibitory constants (Ki) using the Cheng-Prusoff equation.

Test [2] concerns the target Human plasma kallikrein (Homo sapiens (Human), UniProt P03952). Kind of test: Plasma Kallikrein Assay. The test is classed as biochemical. The settings on record: purified Human plasma kallikrein 0.5 nM, substrate Acetyl-K-P-R-AFC, pH 7.4; read-out: PKal IC50. The method, then:
as §1, with “plasma kallikrein” for “Coagulation factor XIa”
Plasma kallikrein determinations were made in 50 mM HEPES buffer at pH 7.4 containing 150 mM NaCl, 5 mM CaCl2, and 0.1% PEG 8000 (polyethylene glycol; Fisher Scientific). Determinations were made using purified Human plasma kallikrein at a final concentration of 0.5 nM (Enzyme Research Laboratories) and the synthetic substrate, Acetyl-K-P-R-AFC (Sigma #C6608) at a concentration of […].
Activity assays were performed by diluting a stock solution of substrate at least tenfold to a final concentration ≤0.2 Km into a solution containing enzyme or enzyme equilibrated with inhibitor. Times required to achieve equilibration between enzyme and inhibitor were determined in control experiments. The reactions were performed under linear progress curve conditions and fluorescence increase measured at 405 Ex/510 Em nm. Values were converted to percent inhibition of the control reaction (after subtracting 100% Inhibition value). IC50 was determined by inflection point from a four parameter logistic curve fit. Ki was calculated using the Cheng Prusoff equation, Ki=IC50/(1+[S]/Km)).

The IC50 is the concentration at which inhibition is half-maximal.

Human plasma kallikrein, sequence (P03952 391-638 limits assumed): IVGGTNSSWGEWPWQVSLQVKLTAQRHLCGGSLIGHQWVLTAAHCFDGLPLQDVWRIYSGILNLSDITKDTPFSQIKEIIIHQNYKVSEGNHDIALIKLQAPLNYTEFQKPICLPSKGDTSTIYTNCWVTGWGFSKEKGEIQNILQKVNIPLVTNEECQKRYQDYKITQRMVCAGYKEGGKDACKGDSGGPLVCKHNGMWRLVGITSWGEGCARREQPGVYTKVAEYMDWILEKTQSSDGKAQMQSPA
Human plasma kallikrein, sequence (P03952 20-390 partner limits assumed): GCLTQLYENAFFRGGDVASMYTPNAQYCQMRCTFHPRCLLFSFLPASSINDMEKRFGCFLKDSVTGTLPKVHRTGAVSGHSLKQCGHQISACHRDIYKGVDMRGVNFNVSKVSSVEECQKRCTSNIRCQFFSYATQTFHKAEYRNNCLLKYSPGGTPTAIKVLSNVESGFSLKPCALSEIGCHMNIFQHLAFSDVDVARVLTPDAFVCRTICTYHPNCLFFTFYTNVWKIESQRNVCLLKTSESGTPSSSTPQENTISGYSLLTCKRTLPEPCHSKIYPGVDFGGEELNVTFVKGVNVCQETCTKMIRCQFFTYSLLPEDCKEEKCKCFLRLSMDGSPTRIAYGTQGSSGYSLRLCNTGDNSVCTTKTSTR
Coagulation factor XIa, sequence (P03951 388-625 limits assumed): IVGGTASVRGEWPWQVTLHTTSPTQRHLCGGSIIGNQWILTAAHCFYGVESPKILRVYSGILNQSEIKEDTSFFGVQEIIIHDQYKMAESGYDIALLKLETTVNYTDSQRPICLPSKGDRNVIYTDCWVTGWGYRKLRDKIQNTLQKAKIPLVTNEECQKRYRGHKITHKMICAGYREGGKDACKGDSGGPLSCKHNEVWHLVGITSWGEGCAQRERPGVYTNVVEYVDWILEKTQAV
Coagulation factor XIa, sequence (P03951 19-387 partner limits assumed): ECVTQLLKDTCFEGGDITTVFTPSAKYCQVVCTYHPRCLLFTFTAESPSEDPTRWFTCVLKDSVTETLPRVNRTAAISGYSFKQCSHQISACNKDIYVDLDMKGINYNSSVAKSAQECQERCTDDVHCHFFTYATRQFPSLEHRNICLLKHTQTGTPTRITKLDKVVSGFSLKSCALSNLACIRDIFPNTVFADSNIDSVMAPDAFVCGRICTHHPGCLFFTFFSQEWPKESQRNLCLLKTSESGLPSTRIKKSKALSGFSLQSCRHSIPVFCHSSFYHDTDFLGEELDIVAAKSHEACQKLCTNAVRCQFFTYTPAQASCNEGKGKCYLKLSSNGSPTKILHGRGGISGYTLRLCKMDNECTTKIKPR

`O=C1Nc2ccc(Cl)c(F)c2[C@]2(CCN(c3cc(C(=O)NCc4ccc(Cn5ccccc5=O)cc4)cnn3)C2)O1` [Example 17, (S)-6-(6-Chloro-5-fluoro-2-oxo-1,2-dihydrospiro[benzo[d][1,3]oxazine-4,3′-pyrrolidin]-1′-yl)-N-(4-((2-oxopyridin-1(2H)-yl)methyl)benzyl)pyridazine-4-carboxamide]: the IC50 in test [1] was found to be 10 µM; in test [2], 0.0163 µM.

Consider `Cc1cnn(Cc2ccc(CNC(=O)c3cncc(N4CC[C@]5(C4)OC(=O)Nc4ccc(Cl)c(F)c45)n3)cc2)c1` [Example 18, (S)-6-(6-Chloro-5-fluoro-2-oxo-1,2-dihydrospiro[benzo[d][1,3]oxazine-4,3′-pyrrolidin]-1′-yl)-N-(4-((4-methyl-1H-pyrazol-1-yl)methyl)benzyl)pyrazine-2-carboxamide], for which the IC50 worked out at 10 µM in test [1] and 0.0128 µM in test [2].

For `Cc1cnn(Cc2ccc(CNC(=O)c3cc(N4CC[C@]5(C4)OC(=O)Nc4ccc(Cl)c(F)c45)ncn3)cc2)c1` [Example 19, (S)-6-(6-Chloro-5-fluoro-2-oxo-1,2-dihydrospiro[benzo[d][1,3]oxazine-4,3′-pyrrolidin]-1′-yl)-N-(4-((4-methyl-1H-pyrazol-1-yl)methyl)benzyl)pyrimidine-4-carboxamide], the half-maximal inhibitory concentration (IC50) in test [1] stood at 10 µM; in test [2] it was 0.0256 µM.

As for `Cc1cnn(Cc2ccc(CNC(=O)c3cncc(N4CC[C@]5(C4)OC(=O)Nc4ccc(Cl)c(F)c45)c3)cn2)c1` [Example 20, (S)-5-(6-Chloro-5-fluoro-2-oxo-1,2-dihydrospiro[benzo[d][1,3]oxazine-4,3′-pyrrolidin]-1′-yl)-N-((6-((4-methyl-1H-pyrazol-1-yl)methyl)pyridin-3-yl)methyl)nicotinamide], the 50% inhibitory concentration (IC50) in test [1] came to 10 µM; in test [2] it was 0.0013 µM.

As to `Cc1cnn(Cc2ccc(CNC(=O)c3cncc(N4CC[C@]5(C4)OC(=O)Nc4ccc(Cl)c(F)c45)n3)cn2)c1` [Example 21, (S)-6-(6-Chloro-5-fluoro-2-oxo-1,2-dihydrospiro[benzo[d][1,3]oxazine-4,3′-pyrrolidin]-1′-yl)-N-((6-((4-methyl-1H-pyrazol-1-yl)methyl)pyridin-3-yl)methyl)pyrazine-2-carboxamide], the IC50 came out at 10 µM in test [1] and 0.0023 µM in test [2].

`Cc1cnn(Cc2ccc(CNC(=O)c3ccnc(N4CC[C@]5(C4)OC(=O)Nc4ccc(Cl)c(F)c45)c3)cc2)c1` [Example 22, (S)-2-(6-Chloro-5-fluoro-2-oxo-1,2-dihydrospiro[benzo[d][1,3]oxazine-4,3′-pyrrolidin]-1′-yl)-N-(4-((4-methyl-1H-pyrazol-1-yl)methyl)benzyl)isonicotinamide]: the concentration for half-maximal inhibition (IC50) is 10 µM in test [1] and 0.0047 µM in test [2].

As for `Cc1cnn(Cc2ccc(CNC(=O)c3cnnc(N4CC[C@]5(C4)OC(=O)Nc4ccc(Cl)c(F)c45)c3)cc2)c1` [Example 23, (S)-6-(6-Chloro-5-fluoro-2-oxo-1,2-dihydrospiro[benzo[d][1,3]oxazine-4,3′-pyrrolidin]-1′-yl)-N-(4-((4-methyl-1H-pyrazol-1-yl)methyl)benzyl)pyridazine-4-carboxamide], the IC50 in test [1] is 10 µM; in test [2], 0.0005 µM.

Regarding `Cc1cnn(Cc2ccc(CNC(=O)c3ccnc(N4CC[C@]5(C4)OC(=O)Nc4ccc(Cl)c(F)c45)n3)cc2)c1` [Example 24, (S)-2-(6-Chloro-5-fluoro-2-oxo-1,2-dihydrospiro[benzo[d][1,3]oxazine-4,3′-pyrrolidin]-1′-yl)-N-(4-((4-methyl-1H-pyrazol-1-yl)methyl)benzyl)pyrimidine-4-carboxamide], the IC50 in test [1] was found to be 10 µM; in test [2], 0.0136 µM.

Consider `Cc1cnn(Cc2ccc(CNC(=O)c3cc(N4CC[C@]5(C4)OC(=O)Nc4ccc(Cl)c(F)c45)ccn3)cc2)c1` [Example 25, (S)-4-(6-Chloro-5-fluoro-2-oxo-1,2-dihydrospiro[benzo[d][1,3]oxazine-4,3′-pyrrolidin]-1′-yl)-N-(4-((4-methyl-1H-pyrazol-1-yl)methyl)benzyl)picolinamide], for which the IC50 in test [1] is 10 µM; in test [2], 0.0165 µM.

With `Cc1cnn(Cc2ccc(CNC(=O)c3cncc(N4CC[C@]5(C4)OC(=O)Nc4ccc(Cl)c(F)c45)c3)cc2)c1` [Example 26, (S)-5-(6-Chloro-5-fluoro-2-oxo-1,2-dihydrospiro[benzo[d][1,3]oxazine-4,3′-pyrrolidin]-1′-yl)-N-(4-((4-methyl-1H-pyrazol-1-yl)methyl)benzyl)nicotinamide], the values for the IC50 in test [1] and in test [2] were 10 µM and 0.0031 µM, respectively.

With `COCC1CN(c2ccc(CNC(=O)c3cnnc(N4CC[C@]5(C4)OC(=O)Nc4ccc(Cl)c(F)c45)c3)cn2)C1` [Example 27, (S)-6-(6-Chloro-5-fluoro-2-oxo-1,2-dihydrospiro[benzo[d][1,3]oxazine-4,3′-pyrrolidin]-1′-yl)-N-((6-(3-(methoxymethyl)azetidin-1-yl)pyridin-3-yl)methyl)pyridazine-4-carboxamide], the results for the IC50 in test [1] and in test [2] were 10 µM and 0.0143 µM, respectively.

Regarding `CN1CCN(c2ccc(CNC(=O)c3cnnc(N4CC[C@]5(C4)OC(=O)Nc4ccc(Cl)c(F)c45)c3)cn2)CC1` [Example 28, (S)-6-(6-Chloro-5-fluoro-2-oxo-1,2-dihydrospiro[benzo[d][1,3]oxazine-4,3′-pyrrolidin]-1′-yl)-N-((6-(4-methylpiperazin-1-yl)pyridin-3-yl)methyl)pyridazine-4-carboxamide], the IC50 in test [1] is 10 µM; in test [2] it was 0.0019 µM.

Take `O=C1Nc2ccc(Cl)c(F)c2[C@]2(CCN(c3cc(C(=O)NCc4ccc(N5CCOCC5)nc4)cnn3)C2)O1` [Example 29, (S)-6-(6-Chloro-5-fluoro-2-oxo-1,2-dihydrospiro[benzo[d][1,3]oxazine-4,3′-pyrrolidin]-1′-yl)-N-((6-morpholinopyridin-3-yl)methyl)pyridazine-4-carboxamide]: the 50% inhibitory concentration (IC50) in test [1] stood at 10 µM; in test [2], 0.005 µM.

For the compound `O=C1Nc2ccc(Cl)c(F)c2[C@]2(CCN(c3cncc(C(=O)NCc4ccc5ccc(=O)oc5c4)n3)C2)O1` [Example 30, (S)-6-(6-Chloro-5-fluoro-2-oxo-1,2-dihydrospiro[benzo[d][1,3]oxazine-4,3′-pyrrolidin]-1′-yl)-N-((2-oxo-2H-chromen-7-yl)methyl)pyrazine-2-carboxamide], the results for the IC50 in test [1] and in test [2] were 10 µM and 0.0209 µM, respectively.

Regarding `O=C1Nc2ccc(Cl)c(F)c2[C@]2(CCN(c3cncc(C(=O)NCc4ccc5c(n4)NCCC5)n3)C2)O1` [Example 31, (S)-6-(6-Chloro-5-fluoro-2-oxo-1,2-dihydrospiro[benzo[d][1,3]oxazine-4,3′-pyrrolidin]-1′-yl)-N-((5,6,7,8-tetrahydro-1,8-naphthyridin-2-yl)methyl)pyrazine-2-carboxamide], the half-maximal inhibitory concentration (IC50) is 10 µM in test [1] and 0.0086 µM in test [2].

On to `Nc1nccc2cc(CNC(=O)c3cncc(N4CC[C@]5(C4)OC(=O)Nc4ccc(Cl)c(F)c45)n3)ccc12` [Example 32, (S)-N-((1-Aminoisoquinolin-6-yl)methyl)-6-(6-chloro-5-fluoro-2-oxo-1,2-dihydrospiro[benzo[d][1,3]oxazine-4,3′-pyrrolidin]-1′-yl)pyrazine-2-carboxamide], for which the IC50 in test [1] came to 10 µM; in test [2], 0.019 µM.

Source of the values: patent publication US20240190892A1, “PLASMA KALLIKREIN INHIBITORS” (Merck Sharp & Dohme LLC, priority 2021, published 2024).
